Experimental data published in patent US20260248775A1, “NEW INHIBITORS OF PHOSPHATIDYLINOSITOL 3-KINASE” (INSTITUT NATIONAL DE LA SANTÉ ET DE LA RECHERCHE MÉDICALE, priority 2022, published 2026).

How the values were obtained:
[1] = biological target: PI3K-β (Homo sapiens, UniProt P42338); experiment: PI3K-inhibitory activity, enzymatic HTRF assay, PI3K-β; type: biochemical; settings: read-out: Class IC50 PI3K-β
Procedure: [The procedure below names another target; the source lists this target under the same test.] (§1) Inhibitory activity of compounds against the Human PtdIns (4,5) P 3-kinase activity was quantified employing the enzymatic HTRF (Homogeneous Time Resolved Fluorescence) Assay.
(§2) PI3K p110a/[…] (h) is incubated in assay buffer containing 10 μM phosphatidylinositol 4,5-bisphosphate and Mg/ATP (concentration as required). The reaction is initiated by the addition of the ATP solution. After incubation for 30 minutes at room temperature, the reaction is stopped by the addition of stop solution containing EDTA and biotinylated phosphatidylinositol-3,4,5-trisphosphate. Finally, detection buffer is added, which contains europium-labelled anti-GST monoclonal antibody, GST-tagged GRP1 PH domain and streptavidin allophycocyanin. The plate is then read in time resolved fluorescence mode and the homogeneous time-resolved fluorescence (HTRF) signal is determined according to the formula HTRF=10000×(Em665 nm/Em620 nm)

[2] = biological target: PI3K-γ (Homo sapiens, UniProt P48736); experiment: PI3K-inhibitory activity, enzymatic HTRF assay, PI3K-γ; type: biochemical; settings: read-out: Class IC50 PI3K-γ
Chain of PI3K-γ (P48736 whole entry): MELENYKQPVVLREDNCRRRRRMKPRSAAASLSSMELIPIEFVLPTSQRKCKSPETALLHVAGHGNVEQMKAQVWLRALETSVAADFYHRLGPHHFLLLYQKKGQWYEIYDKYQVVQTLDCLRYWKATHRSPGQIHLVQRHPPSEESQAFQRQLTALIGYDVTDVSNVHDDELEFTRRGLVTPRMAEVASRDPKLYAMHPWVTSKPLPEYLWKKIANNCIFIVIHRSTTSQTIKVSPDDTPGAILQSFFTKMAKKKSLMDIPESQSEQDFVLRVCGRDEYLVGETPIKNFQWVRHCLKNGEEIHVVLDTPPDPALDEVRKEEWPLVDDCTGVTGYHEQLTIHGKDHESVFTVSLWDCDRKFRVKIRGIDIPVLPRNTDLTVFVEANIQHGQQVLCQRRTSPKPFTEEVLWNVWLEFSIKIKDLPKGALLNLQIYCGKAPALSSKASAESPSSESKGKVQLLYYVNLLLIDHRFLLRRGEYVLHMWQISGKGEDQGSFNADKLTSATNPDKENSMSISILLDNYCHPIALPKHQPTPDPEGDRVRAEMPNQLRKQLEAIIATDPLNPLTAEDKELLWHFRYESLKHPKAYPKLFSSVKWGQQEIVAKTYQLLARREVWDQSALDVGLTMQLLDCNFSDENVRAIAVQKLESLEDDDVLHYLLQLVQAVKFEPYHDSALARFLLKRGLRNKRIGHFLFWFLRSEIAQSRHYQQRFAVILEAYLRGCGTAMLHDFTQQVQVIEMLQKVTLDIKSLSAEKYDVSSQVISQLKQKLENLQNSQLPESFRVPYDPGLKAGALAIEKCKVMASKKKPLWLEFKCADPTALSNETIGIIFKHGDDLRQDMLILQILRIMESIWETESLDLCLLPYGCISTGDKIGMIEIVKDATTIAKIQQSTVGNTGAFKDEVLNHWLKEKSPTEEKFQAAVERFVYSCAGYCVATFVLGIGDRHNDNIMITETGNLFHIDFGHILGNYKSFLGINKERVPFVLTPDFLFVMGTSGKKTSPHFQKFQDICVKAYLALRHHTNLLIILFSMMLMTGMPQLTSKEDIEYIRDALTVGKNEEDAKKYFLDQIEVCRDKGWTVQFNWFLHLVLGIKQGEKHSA
Procedure: [The procedure below names another target; the source lists this target under the same test.] as §1, §2

[3] = biological target: PI3K-α (PI3K p110a/p65a (h)) (Homo sapiens, UniProt P42336); experiment: PI3K-inhibitory activity, enzymatic HTRF assay, PI3K-α; type: biochemical; settings: 10 μM PIP2, 30 minutes at room temperature, read-out: Class IC50 PI3K-α
Chain of PI3K-α (PI3K p110a/p65a (h)) (P42336 whole entry): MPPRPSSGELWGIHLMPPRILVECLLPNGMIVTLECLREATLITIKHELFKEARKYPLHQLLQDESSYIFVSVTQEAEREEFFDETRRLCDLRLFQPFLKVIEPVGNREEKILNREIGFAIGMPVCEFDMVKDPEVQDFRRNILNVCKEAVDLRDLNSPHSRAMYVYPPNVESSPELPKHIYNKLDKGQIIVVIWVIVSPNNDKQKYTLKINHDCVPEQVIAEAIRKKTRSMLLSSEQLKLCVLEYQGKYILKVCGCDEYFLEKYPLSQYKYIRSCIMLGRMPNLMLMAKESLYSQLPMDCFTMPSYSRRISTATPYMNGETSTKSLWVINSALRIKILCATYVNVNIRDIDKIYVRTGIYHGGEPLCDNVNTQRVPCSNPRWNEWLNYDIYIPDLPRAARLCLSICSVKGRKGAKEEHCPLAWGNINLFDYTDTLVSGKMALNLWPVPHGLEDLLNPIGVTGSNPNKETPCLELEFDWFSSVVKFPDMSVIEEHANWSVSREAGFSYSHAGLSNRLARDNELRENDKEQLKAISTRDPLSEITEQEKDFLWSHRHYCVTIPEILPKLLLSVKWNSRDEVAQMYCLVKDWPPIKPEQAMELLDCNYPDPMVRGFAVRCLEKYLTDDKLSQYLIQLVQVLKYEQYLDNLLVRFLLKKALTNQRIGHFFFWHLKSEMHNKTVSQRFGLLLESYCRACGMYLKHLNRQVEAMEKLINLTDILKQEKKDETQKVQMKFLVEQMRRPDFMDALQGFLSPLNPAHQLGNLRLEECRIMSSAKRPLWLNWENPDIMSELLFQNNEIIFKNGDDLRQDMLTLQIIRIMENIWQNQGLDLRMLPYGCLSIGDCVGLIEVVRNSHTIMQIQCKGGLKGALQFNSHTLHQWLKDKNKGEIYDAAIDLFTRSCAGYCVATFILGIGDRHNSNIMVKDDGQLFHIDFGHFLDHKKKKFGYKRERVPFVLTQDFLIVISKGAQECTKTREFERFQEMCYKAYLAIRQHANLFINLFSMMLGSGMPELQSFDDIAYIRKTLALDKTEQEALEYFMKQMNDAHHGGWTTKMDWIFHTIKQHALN
Procedure: as §1, §2

[4] = biological target: PI3K-δ (Homo sapiens, UniProt O00329); experiment: PI3K-inhibitory activity, enzymatic HTRF assay, PI3K-δ; type: biochemical; settings: read-out: Class IC50 PI3K-δ
Chain of PI3K-δ (O00329 whole entry): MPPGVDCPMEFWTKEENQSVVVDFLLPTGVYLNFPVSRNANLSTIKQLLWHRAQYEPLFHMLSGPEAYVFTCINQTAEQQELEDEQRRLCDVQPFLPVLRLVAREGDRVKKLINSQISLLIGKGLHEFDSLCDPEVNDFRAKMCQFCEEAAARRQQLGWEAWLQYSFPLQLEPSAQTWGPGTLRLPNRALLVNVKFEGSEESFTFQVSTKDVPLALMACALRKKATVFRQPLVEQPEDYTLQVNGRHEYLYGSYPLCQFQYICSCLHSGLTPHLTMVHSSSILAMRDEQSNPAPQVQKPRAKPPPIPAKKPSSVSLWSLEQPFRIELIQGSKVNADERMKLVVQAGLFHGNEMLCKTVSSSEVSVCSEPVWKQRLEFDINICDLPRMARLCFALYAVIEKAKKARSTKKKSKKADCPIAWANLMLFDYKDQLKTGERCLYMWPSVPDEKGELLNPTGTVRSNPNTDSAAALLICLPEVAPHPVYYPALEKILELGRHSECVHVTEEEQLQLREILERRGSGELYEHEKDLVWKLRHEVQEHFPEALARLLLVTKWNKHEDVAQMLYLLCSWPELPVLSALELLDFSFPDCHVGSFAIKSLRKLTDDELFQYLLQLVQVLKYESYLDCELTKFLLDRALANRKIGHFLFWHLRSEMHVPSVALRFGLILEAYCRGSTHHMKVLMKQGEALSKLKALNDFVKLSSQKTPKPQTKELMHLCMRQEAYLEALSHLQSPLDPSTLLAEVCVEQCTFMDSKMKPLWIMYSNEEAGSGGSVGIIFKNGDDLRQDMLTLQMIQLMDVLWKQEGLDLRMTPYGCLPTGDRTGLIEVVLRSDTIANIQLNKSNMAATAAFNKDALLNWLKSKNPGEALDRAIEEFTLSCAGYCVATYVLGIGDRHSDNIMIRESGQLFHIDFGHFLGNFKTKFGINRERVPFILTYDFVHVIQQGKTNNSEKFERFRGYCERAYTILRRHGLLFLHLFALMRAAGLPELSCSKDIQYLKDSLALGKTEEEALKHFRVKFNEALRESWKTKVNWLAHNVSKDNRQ
Chain of PI3K-δ (P27986 whole entry partner): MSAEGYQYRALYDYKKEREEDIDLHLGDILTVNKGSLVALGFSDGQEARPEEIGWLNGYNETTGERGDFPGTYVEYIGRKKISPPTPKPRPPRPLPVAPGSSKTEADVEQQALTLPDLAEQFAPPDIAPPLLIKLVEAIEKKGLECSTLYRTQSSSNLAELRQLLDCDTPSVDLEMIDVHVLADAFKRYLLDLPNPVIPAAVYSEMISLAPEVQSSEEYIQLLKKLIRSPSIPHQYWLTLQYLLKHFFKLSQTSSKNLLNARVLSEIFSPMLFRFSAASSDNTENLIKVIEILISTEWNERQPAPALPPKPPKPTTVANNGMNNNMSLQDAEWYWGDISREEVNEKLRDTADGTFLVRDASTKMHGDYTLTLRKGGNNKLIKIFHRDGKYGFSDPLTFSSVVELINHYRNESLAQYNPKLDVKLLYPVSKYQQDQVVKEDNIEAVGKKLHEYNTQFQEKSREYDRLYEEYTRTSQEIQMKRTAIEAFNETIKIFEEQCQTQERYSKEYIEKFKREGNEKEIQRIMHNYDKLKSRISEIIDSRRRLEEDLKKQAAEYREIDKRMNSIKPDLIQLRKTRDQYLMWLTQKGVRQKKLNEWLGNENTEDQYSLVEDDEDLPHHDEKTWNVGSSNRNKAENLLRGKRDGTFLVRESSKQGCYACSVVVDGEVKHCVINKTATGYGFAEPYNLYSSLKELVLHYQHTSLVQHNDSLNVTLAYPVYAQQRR

[5] = test system: NZBWF1/J mice; experiment: Kidney lesions in lupus model, uninephrectomized NZBWF1/J mice; type: in vivo, mouse; settings: 50 mg/kg/day orally
Procedure: FIG. 1 (A to C) illustrates the ability of Compound 5 of the invention to improve kidney lesions in NZBWF1/J mouse model. A. Urinary albumin to creatinine ratio (Ualb/Cre) (Ordinate, mg/mmol). Abscissa (From left to right): Vehicle and Compound 5 (50 mg/kg). B. Blood urea nitrogen level (BUN) (Ordinate, mmol/L). Abscissa (From left to right): Vehicle and Compound 5 (50 mg/kg). C. Glomerular lesion score of kidneys 4 weeks after uninephrectomy followed by treatment with either the vehicle or Compound 5 (n=6 mice per group). AU: Arbitrary Unit (Ordinate). Abscissa (From left to right): Vehicle and Compound 5 (50 mg/kg).
NZBWF1/J mice gradually develop immune glomerulonephritis characterized by proteinuria and kidney dysfunction starting around 25 weeks of age. The uninephrectomy model was employed and uninephrectomy was performed on 12 female mice at 24 weeks of age.
As the incidence and severity of symptoms are more pronounced in females, only females were used in this study. The mice were then randomly assigned to receive either the vehicle (n=6) or Compound 5 50 mg/kg/day orally (n=6) for a duration of 4 weeks. At the end of the treatment period, the mice were sacrificed and their kidney histology was compared to samples obtained during the uninephrectomy procedure.

[6] = Blood insulin concentration after repeated oral gavage in C57B16 mice; type: in vivo, mouse; settings: 50 mg/kg oral gavage daily for 5 days, plasma on day 6, male C57B16 mice, FIG. 2
Procedure: FIG. 2 illustrates the variation of insulin over time for the groups of mice treated either with a vehicle or with Compound 5 of the invention. Ordinate: insulin (ng/ml). Abscissa: time (hours).
C57B16 mice (n=3 mice per group, 3 males) aged of 8 weeks old were daily treated by either vehicle or Compound 5 (50 mg/kg) during 5 consecutive days through oral gavage. On day 6, insulin concentrations were measured at different time points before and after drug administration.
Insulin level was measured in plasma (7 μL in duplicate) using MSD u.plex (Mesoscale, ref 1526HK).

[7] = Blood glucose after repeated oral gavage in C57B16 mice; type: in vivo, mouse; settings: 50 mg/kg oral gavage daily for 5 days, measured on day 6, C57B16 mice, vs vehicle
Procedure: C57B16 mice (n=6 mice per group, 3 males and 3 females) aged of 8 weeks old were daily treated by either vehicle or Compound 5 (50 mg/kg) during 5 consecutive days through oral gavage.
On day 6, blood glucose concentrations were measured at different time points before and after drug administration.

Chain of PI3K-β (P42338 whole entry): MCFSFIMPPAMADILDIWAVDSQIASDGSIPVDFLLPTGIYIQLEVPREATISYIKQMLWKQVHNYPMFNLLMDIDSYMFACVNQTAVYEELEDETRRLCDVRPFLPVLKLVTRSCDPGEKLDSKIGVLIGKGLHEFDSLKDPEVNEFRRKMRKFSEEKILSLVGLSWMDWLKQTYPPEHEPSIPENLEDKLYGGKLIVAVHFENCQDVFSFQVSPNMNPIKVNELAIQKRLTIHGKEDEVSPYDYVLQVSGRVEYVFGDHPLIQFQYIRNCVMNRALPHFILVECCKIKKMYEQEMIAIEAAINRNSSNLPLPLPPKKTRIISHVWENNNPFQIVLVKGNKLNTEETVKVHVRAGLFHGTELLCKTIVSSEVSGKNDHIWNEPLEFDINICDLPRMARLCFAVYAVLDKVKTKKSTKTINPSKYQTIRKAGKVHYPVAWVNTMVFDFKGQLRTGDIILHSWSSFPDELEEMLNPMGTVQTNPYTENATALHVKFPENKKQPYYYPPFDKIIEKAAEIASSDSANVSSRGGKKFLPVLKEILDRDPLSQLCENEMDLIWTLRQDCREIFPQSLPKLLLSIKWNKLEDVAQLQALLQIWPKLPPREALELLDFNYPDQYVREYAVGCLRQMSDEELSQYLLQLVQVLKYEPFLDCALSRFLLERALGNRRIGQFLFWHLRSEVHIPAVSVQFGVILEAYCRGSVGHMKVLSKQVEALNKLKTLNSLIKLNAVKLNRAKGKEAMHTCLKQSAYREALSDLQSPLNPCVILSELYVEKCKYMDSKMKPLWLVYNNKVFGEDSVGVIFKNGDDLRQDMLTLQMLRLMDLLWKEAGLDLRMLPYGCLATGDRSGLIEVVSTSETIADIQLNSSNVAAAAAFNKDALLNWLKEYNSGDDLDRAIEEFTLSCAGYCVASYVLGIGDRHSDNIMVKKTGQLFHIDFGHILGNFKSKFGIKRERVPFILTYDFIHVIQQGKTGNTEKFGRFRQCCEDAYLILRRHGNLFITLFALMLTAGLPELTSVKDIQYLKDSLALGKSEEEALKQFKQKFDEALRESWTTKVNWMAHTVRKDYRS
Chain of PI3K-β (P27986 whole entry partner): as the sequence (P27986 whole entry partner) above

## Cc1nc(NC(=O)N2CC3(C[C@H]2C(N)=S)CC3(F)F)sc1-c1ccnc(C(C)(C)C(F)(F)F)c1 (stereo partly drawn) [Compound 4, (S)-6-carbamothioyl-N-(4-methyl-5-(2-(1,1,1-trifluoro-2-methylpropan-2-yl)pyridin-4-yl)thiazol-2-yl)-1,1-difluoro-5-azaspiro[2,4]heptane-5-carboxamide]
[1]
  IC50: > 1000 nM
[2]
  IC50: > 1000 nM
[3]
  IC50: > 1000 nM
[4]
  IC50: > 1000 nM

## Cc1nc(NC(=O)N2CCC[C@@]2(C)C(N)=S)sc1-c1ccnc(C(C)(C)C(F)(F)F)c1 [Compound 6, (S)-2-carbamothioyl-2-methyl-N-(4-methyl-5-(2-(1,1,1-trifluoro-2-methylpropan-2-yl)pyridin-4-yl)thiazol-2-yl)pyrrolidine-1-carboxamide]
[1]
  IC50: > 1000 nM
[2]
  IC50: > 1000 nM
[3]
  IC50: > 1000 nM
[4]
  IC50: > 1000 nM

## Cc1nc(NC(=O)N2CCC[C@H]2C(N)=S)sc1-c1ccnc(C(C)(C)C(F)(F)F)c1 [Compound 5, (S)-2-carbamothioyl-N-(4-methyl-5-(2-(1,1,1-trifluoro-2-methylpropan-2-yl)pyridin-4-yl)thiazol-2-yl)pyrrolidine-1-carboxamide]
[5]; 4 weeks after uninephrectomy, histology, FIG. 1C
  glomerular lesions (glomerular lesion score): remained stable
[5]; 4 weeks, female uninephrectomized NZBWF1/J mice
  kidney-to-body weight ratio: notably decreased
[5]; 4 weeks, female uninephrectomized NZBWF1/J mice, vs vehicle, FIG. 1A
  albuminuria (urinary albumin to creatinine ratio): significant reductions
[5]; 4 weeks, female uninephrectomized NZBWF1/J mice, vs vehicle, FIG. 1B
  blood urea nitrogen levels: significant reductions
[6]
  blood insulin concentration: no increase
[1]
  IC50: > 1000 nM
[2]
  IC50: 200 to 500 nM
[3]
  IC50: ≤ 50 nM
[4]
  IC50: 200 to 500 nM
[7]
  blood glucose: modest increase

## Cc1nc(NC(=O)N2CC(F)(F)C[C@H]2C(N)=S)sc1-c1ccnc(C(C)(C)C(F)(F)F)c1 [Compound 1, (S)-2-carbamothioyl-4,4-difluoro-N-(4-methyl-5-(2-(1,1,1-trifluoro-2-methylpropan-2-yl)pyridin-4-yl)thiazol-2-yl)pyrrolidine-1-carboxamide]
[1]
  IC50: > 1000 nM
[2]
  IC50: > 1000 nM
[3]
  IC50: 200 to 500 nM
[4]
  IC50: 200 to 500 nM

## Cc1nc(NC(=O)N2[C@@H](C)CC[C@H]2C(N)=S)sc1-c1ccnc(C(C)(C)C(F)(F)F)c1 [Compound 10, (2S,5S)-2-carbamothioyl-5-methyl-N-(4-methyl-5-(2-(1,1,1-trifluoro-2-methylpropan-2-yl)pyridin-4-yl)thiazol-2-yl)pyrrolidine-1-carboxamide]
[1]
  IC50: > 1000 nM
[2]
  IC50: > 1000 nM
[3]
  IC50: > 1000 nM
[4]
  IC50: > 1000 nM

## Cc1nc(NC(=O)N2C[C@H](O)C[C@H]2C(N)=S)sc1-c1ccnc(C(C)(C)C(F)(F)F)c1 [Compound 13, (2S,4R)-2-carbamothioyl-4-hydroxy-N-(4-methyl-5-(2-(1,1,1-trifluoro-2-methylpropan-2-yl)pyridin-4-yl)thiazol-2-yl)pyrrolidine-1-carboxamide]
[1]
  IC50: > 1000 nM
[2]
  IC50: 200 to 500 nM
[3]
  IC50: ≤ 50 nM
[4]
  IC50: 200 to 500 nM

## Cc1nc(NC(=O)N2[C@H](C)CC[C@H]2C(N)=S)sc1-c1ccnc(C(C)(C)C(F)(F)F)c1 [Compound 9, (2S,5R)-2-carbamothioyl-5-methyl-N-(4-methyl-5-(2-(1,1,1-trifluoro-2-methylpropan-2-yl)pyridin-4-yl)thiazol-2-yl)pyrrolidine-1-carboxamide]
[1]
  IC50: > 1000 nM
[2]
  IC50: > 1000 nM
[3]
  IC50: 200 to 500 nM
[4]
  IC50: > 1000 nM

## Cc1nc(NC(=O)N2C[C@H](F)C[C@H]2C(N)=S)sc1-c1ccnc(C(C)(C)C(F)(F)F)c1 [Compound 2, (2S,4R)-2-carbamothioyl-4-fluoro-N-(4-methyl-5-(2-(1,1,1-trifluoro-2-methylpropan-2-yl)pyridin-4-yl)thiazol-2-yl)pyrrolidine-1-carboxamide]
[1]
  IC50: > 1000 nM
[2]
  IC50: 200 to 500 nM
[3]
  IC50: 50 to 200 nM
[4]
  IC50: 200 to 500 nM

## Cc1nc(NC(=O)N2CC[C@H](O)[C@H]2C(N)=S)sc1-c1ccnc(C(C)(C)C(F)(F)F)c1 [Compound 14, (2S,3S)-2-carbamothioyl-3-hydroxy-N-(4-methyl-5-(2-(1,1,1-trifluoro-2-methylpropan-2-yl)pyridin-4-yl)thiazol-2-yl)pyrrolidine-1-carboxamide]
[1]
  IC50: > 1000 nM
[2]
  IC50: 200 to 500 nM
[3]
  IC50: ≤ 50 nM
[4]
  IC50: 200 to 500 nM

## CO[C@H]1C[C@@H](C(N)=S)N(C(=O)Nc2nc(C)c(-c3ccnc(C(C)(C)C(F)(F)F)c3)s2)C1 [Compound 8, (2S,4S)-2-carbamothioyl-4-methoxy-N-(4-methyl-5-(2-(1,1,1-trifluoro-2-methylpropan-2-yl)pyridin-4-yl)thiazol-2-yl)pyrrolidine-1-carboxamide]
[1]
  IC50: > 1000 nM
[2]
  IC50: 200 to 500 nM
[3]
  IC50: 50 to 200 nM
[4]
  IC50: 500 to 1000 nM

## Cc1nc(NC(=O)N2C[C@@H](C(F)(F)F)C[C@H]2C(N)=S)sc1-c1ccnc(C(C)(C)C(F)(F)F)c1 [Compound 12, (2S,4S)-2-carbamothioyl-N-(4-methyl-5-(2-(1,1,1-trifluoro-2-methylpropan-2-yl)pyridin-4-yl)thiazol-2-yl)-4-(trifluoromethyl)pyrrolidine-1-carboxamide]
[1]
  IC50: > 1000 nM
[2]
  IC50: > 1000 nM
[3]
  IC50: 500 to 1000 nM
[4]
  IC50: > 1000 nM

## CO[C@@H]1C[C@@H](C(N)=S)N(C(=O)Nc2nc(C)c(-c3ccnc(C(C)(C)C(F)(F)F)c3)s2)C1 [Compound 7, (2S,4R)-2-carbamothioyl-4-methoxy-N-(4-methyl-5-(2-(1,1,1-trifluoro-2-methylpropan-2-yl)pyridin-4-yl)thiazol-2-yl)pyrrolidine-1-carboxamide]
[1]
  IC50: > 1000 nM
[2]
  IC50: 200 to 500 nM
[3]
  IC50: 50 to 200 nM
[4]
  IC50: 500 to 1000 nM

## Cc1nc(NC(=O)N2C[C@@H](F)C[C@H]2C(N)=S)sc1-c1ccnc(C(C)(C)C(F)(F)F)c1 [Compound 3, (2S,4S)-2-carbamothioyl-4-fluoro-N-(4-methyl-5-(2-(1,1,1-trifluoro-2-methylpropan-2-yl)pyridin-4-yl)thiazol-2-yl)pyrrolidine-1-carboxamide]
[1]
  IC50: > 1000 nM
[2]
  IC50: 200 to 500 nM
[3]
  IC50: 50 to 200 nM
[4]
  IC50: > 1000 nM
